In ChEMBL document CHEMBL3885881, “DrugMatrix”:

Species on record: Rattus norvegicus
Test: DrugMatrix - Regimen: Daily Repeat
Format: toxicity, organism-based, Sprague-Dawley
Parameters: regimen Daily Repeat, gender Male, age 6-8 weeks
Settings: in vivo, po, route oral GAVAGE, […]; for ABSOLUTE BASOPHIL / ABSOLUTE EOSINOPHIL / ABSOLUTE LYMPHOCYTE / ABSOLUTE MONOCYTE / ABSOLUTE SEGMENTED NEUTROPHIL / BASOPHIL / EOSINOPHIL / ERYTHROCYTE COUNT / HEMATOCRIT / HEMOGLOBIN / LEUKOCYTE COUNT / LYMPHOCYTE / MEAN CORPUSCULAR HEMOGLOBIN / MEAN CORPUSCULAR HEMOGLOBIN CONCENTRATION / MEAN CORPUSCULAR VOLUME / MONOCYTE / NEUTROPHIL / NUCLEATED RED BLOOD CELLS / PLATELET COUNT: tissue Blood; for ALANINE AMINOTRANSFERASE / ALBUMIN / ALKALINE PHOSPHATASE / ASPARTATE AMINOTRANSFERASE / BLOOD UREA NITROGEN / CARBON DIOXIDE / CHLORIDE / CHOLESTEROL / CREATINE PHOSPHOKINASE / CREATININE / GLUCOSE / LACTATE DEHYDROGENASE / LIPASE / PHOSPHORUS / POTASSIUM / SODIUM / TOTAL BILIRUBIN / TOTAL PROTEIN / URIC ACID: tissue Plasma
[1] = 250 mg/kg, 72 h, dose level Low, time 3 day
[2] = 250 mg/kg, 120 h, dose level Low, time 5 day
[3] = 930 mg/kg, 72 h, dose level High, time 3 day
[4] = 930 mg/kg, 120 h, dose level High, time 5 day

CC12CCC(CC1)C(C)(C)O2 [EUCALYPTOL]
ABSOLUTE BASOPHIL [1]: 0 CELLS/uL | ABSOLUTE EOSINOPHIL [1]: 0 CELLS/uL | ABSOLUTE LYMPHOCYTE [1]: 12865.33 CELLS/uL | ABSOLUTE MONOCYTE [1]: 104 CELLS/uL | ABSOLUTE SEGMENTED NEUTROPHIL [1]: 1797.33 CELLS/uL | BASOPHIL [1]: 0% | EOSINOPHIL [1]: 0% | ERYTHROCYTE COUNT [1]: 5.22 x10E6/uL | HEMATOCRIT [1]: 32.73% | HEMOGLOBIN [1]: 12.97 G/DL | LEUKOCYTE COUNT [1]: 14.77 x10E3/uL | LYMPHOCYTE [1]: 87.33% | MEAN CORPUSCULAR HEMOGLOBIN [1]: 24.83 pg | MEAN CORPUSCULAR HEMOGLOBIN CONCENTRATION [1]: 39.63 G/DL | MEAN CORPUSCULAR VOLUME [1]: 62.77 fL | MONOCYTE [1]: 0.67% | NEUTROPHIL [1]: 12% | NUCLEATED RED BLOOD CELLS [1]: 0 /100WBC | PLATELET COUNT [1]: 1143.67 x10E3/uL | ALANINE AMINOTRANSFERASE [1]: 68.67 u/L | ALBUMIN [1]: 4.03 G/DL | ALKALINE PHOSPHATASE [1]: 413.33 u/L | ASPARTATE AMINOTRANSFERASE [1]: 95.33 u/L | BLOOD UREA NITROGEN [1]: 12.33 mg/dL | CARBON DIOXIDE [1]: 24 mmol/L | CHLORIDE [1]: 103.67 MEQ/L | CHOLESTEROL [1]: 84.67 mg/dL | CREATINE PHOSPHOKINASE [1]: 439.67 u/L | CREATININE [1]: 0.17 mg/dL | GLUCOSE [1]: 160.33 mg/dL | LACTATE DEHYDROGENASE [1]: 154.67 u/L | LIPASE [1]: 10.33 u/L | PHOSPHORUS [1]: 12.5 mg/dL | POTASSIUM [1]: 6.64 MEQ/L | SODIUM [1]: 145.33 MEQ/L | TOTAL BILIRUBIN [1]: 0.2 mg/dL | TOTAL PROTEIN [1]: 5.53 G/DL | URIC ACID [1]: 1.43 mg/dL | ABSOLUTE BASOPHIL [2]: 0 CELLS/uL | ABSOLUTE EOSINOPHIL [2]: 0 CELLS/uL | ABSOLUTE LYMPHOCYTE [2]: 15020.67 CELLS/uL | ABSOLUTE MONOCYTE [2]: 301.67 CELLS/uL | ABSOLUTE SEGMENTED NEUTROPHIL [2]: 1277.67 CELLS/uL | BASOPHIL [2]: 0% | EOSINOPHIL [2]: 0% | ERYTHROCYTE COUNT [2]: 5.46 x10E6/uL | HEMATOCRIT [2]: 34.57% | HEMOGLOBIN [2]: 14.17 G/DL | LEUKOCYTE COUNT [2]: 16.6 x10E3/uL | LYMPHOCYTE [2]: 90.33% | MEAN CORPUSCULAR HEMOGLOBIN [2]: 25.97 pg | MEAN CORPUSCULAR HEMOGLOBIN CONCENTRATION [2]: 40.97 G/DL | MEAN CORPUSCULAR VOLUME [2]: 63.33 fL | MONOCYTE [2]: 1.67% | NEUTROPHIL [2]: 8% | NUCLEATED RED BLOOD CELLS [2]: 0.67 /100WBC | PLATELET COUNT [2]: 1304.67 x10E3/uL | ALANINE AMINOTRANSFERASE [2]: 61 u/L | ALBUMIN [2]: 4.2 G/DL | ALKALINE PHOSPHATASE [2]: 377.33 u/L | ASPARTATE AMINOTRANSFERASE [2]: 78.33 u/L | BLOOD UREA NITROGEN [2]: 16 mg/dL | CARBON DIOXIDE [2]: 24.33 mmol/L | CHLORIDE [2]: 103 MEQ/L | CHOLESTEROL [2]: 71 mg/dL | CREATINE PHOSPHOKINASE [2]: 231.33 u/L | CREATININE [2]: 0.17 mg/dL | GLUCOSE [2]: 153.67 mg/dL | LACTATE DEHYDROGENASE [2]: 170.67 u/L | LIPASE [2]: 10 u/L | PHOSPHORUS [2]: 12.6 mg/dL | POTASSIUM [2]: 6.77 MEQ/L | SODIUM [2]: 146.3 MEQ/L | TOTAL BILIRUBIN [2]: 0.13 mg/dL | TOTAL PROTEIN [2]: 5.97 G/DL | URIC ACID [2]: 1.53 mg/dL | ABSOLUTE BASOPHIL [3]: 0 CELLS/uL | ABSOLUTE EOSINOPHIL [3]: 0 CELLS/uL | ABSOLUTE LYMPHOCYTE [3]: 15782.67 CELLS/uL | ABSOLUTE MONOCYTE [3]: 121.67 CELLS/uL | ABSOLUTE SEGMENTED NEUTROPHIL [3]: 2129 CELLS/uL | BASOPHIL [3]: 0% | EOSINOPHIL [3]: 0% | ERYTHROCYTE COUNT [3]: 5.63 x10E6/uL | HEMATOCRIT [3]: 35.83% | HEMOGLOBIN [3]: 14.2 G/DL | LEUKOCYTE COUNT [3]: 18.03 x10E3/uL | LYMPHOCYTE [3]: 87.67% | MEAN CORPUSCULAR HEMOGLOBIN [3]: 25.3 pg | MEAN CORPUSCULAR HEMOGLOBIN CONCENTRATION [3]: 39.67 G/DL | MEAN CORPUSCULAR VOLUME [3]: 63.73 fL | MONOCYTE [3]: 0.67% | NEUTROPHIL [3]: 11.67% | NUCLEATED RED BLOOD CELLS [3]: 0 /100WBC | PLATELET COUNT [3]: 1268 x10E3/uL | ALANINE AMINOTRANSFERASE [3]: 85.33 u/L | ALBUMIN [3]: 4.33 G/DL | ALKALINE PHOSPHATASE [3]: 424.33 u/L | ASPARTATE AMINOTRANSFERASE [3]: 90.67 u/L | BLOOD UREA NITROGEN [3]: 16.67 mg/dL | CARBON DIOXIDE [3]: 23.33 mmol/L | CHLORIDE [3]: 103 MEQ/L | CHOLESTEROL [3]: 84.33 mg/dL | CREATINE PHOSPHOKINASE [3]: 211.67 u/L | CREATININE [3]: 0.24 mg/dL | GLUCOSE [3]: 153.67 mg/dL | LACTATE DEHYDROGENASE [3]: 86.67 u/L | LIPASE [3]: 11.67 u/L | PHOSPHORUS [3]: 12.2 mg/dL | POTASSIUM [3]: 6.76 MEQ/L | SODIUM [3]: 146.43 MEQ/L | TOTAL BILIRUBIN [3]: 0.13 mg/dL | TOTAL PROTEIN [3]: 6.03 G/DL | URIC ACID [3]: 1.67 mg/dL | ABSOLUTE BASOPHIL [4]: 0 CELLS/uL | ABSOLUTE EOSINOPHIL [4]: 0 CELLS/uL | ABSOLUTE LYMPHOCYTE [4]: 18083.67 CELLS/uL | ABSOLUTE MONOCYTE [4]: 256.67 CELLS/uL | ABSOLUTE SEGMENTED NEUTROPHIL [4]: 1226.33 CELLS/uL | BASOPHIL [4]: 0% | EOSINOPHIL [4]: 0% | ERYTHROCYTE COUNT [4]: 5.66 x10E6/uL | HEMATOCRIT [4]: 35.63% | HEMOGLOBIN [4]: 14.2 G/DL | LEUKOCYTE COUNT [4]: 19.57 x10E3/uL | LYMPHOCYTE [4]: 92.33% | MEAN CORPUSCULAR HEMOGLOBIN [4]: 25.1 pg | MEAN CORPUSCULAR HEMOGLOBIN CONCENTRATION [4]: 39.87 G/DL | MEAN CORPUSCULAR VOLUME [4]: 62.97 fL | MONOCYTE [4]: 1.33% | NEUTROPHIL [4]: 6.33% | NUCLEATED RED BLOOD CELLS [4]: 0 /100WBC | PLATELET COUNT [4]: 1326.67 x10E3/uL | ALANINE AMINOTRANSFERASE [4]: 58 u/L | ALBUMIN [4]: 4.17 G/DL | ALKALINE PHOSPHATASE [4]: 302.33 u/L | ASPARTATE AMINOTRANSFERASE [4]: 76.33 u/L | BLOOD UREA NITROGEN [4]: 14 mg/dL | CARBON DIOXIDE [4]: 26.33 mmol/L | CHLORIDE [4]: 101.67 MEQ/L | CHOLESTEROL [4]: 73 mg/dL | CREATINE PHOSPHOKINASE [4]: 275 u/L | CREATININE [4]: 0.22 mg/dL | GLUCOSE [4]: 158 mg/dL | LACTATE DEHYDROGENASE [4]: 114.33 u/L | LIPASE [4]: 11 u/L | PHOSPHORUS [4]: 11.8 mg/dL | POTASSIUM [4]: 6.84 MEQ/L | SODIUM [4]: 145.5 MEQ/L | TOTAL BILIRUBIN [4]: 0.23 mg/dL | TOTAL PROTEIN [4]: 5.97 G/DL | URIC ACID [4]: 1.8 mg/dL
